These results are taken from the OPERA property sets (Mansouri et al. 2018).

In general, logP refers to a log measure of how a compound divides between an organic and an aqueous phase. Low readings indicate a more hydrophilic compound, high ones a more lipophilic compound.

Molecules are shown by their SMILES.

`OC(c1ccc(Cl)cc1)(c1ccc(Cl)cc1)C(Cl)(Cl)Cl` gave a logP of 5.02.
For `O=C(NC(=O)c1c(F)cccc1F)Nc1cc(Cl)c(F)c(Cl)c1F` the value was 4.56; for `CC12CC1(C)C(=O)N(c1cc(Cl)cc(Cl)c1)C2=O` (stereo not drawn), 3.08; for `CC(C)OP(=O)(OC(C)C)SCc1ccccc1`, 3.34.
The molecule `Cc1ccc(S(=O)(=O)Oc2c(C(=O)c3ccc(Cl)cc3Cl)c(C)nn2C)cc1` registered a logP of 3.9.
As for `CCOP(=S)(OCC)Oc1cc(-c2ccccc2)on1`, the figure is 3.73.
In turn, `CC(C)N1C(=O)c2ccccc2NS1(=O)=O` returned a logP of 2.34.
For `CCCOP(=S)(OCCC)SCC(=O)N1CCCCC1C` (stereo not drawn) the value was 4.04; for `C#CCOS(=O)OC1CCCCC1Oc1ccc(C(C)(C)C)cc1` (stereo not drawn), 5.
In the case of `CC(C)OC(=O)C(C(=O)OC(C)C)=C1SCCS1`, the logP stood at 2.88.
For `Clc1nc(Cl)nc(Nc2ccccc2Cl)n1` the value was 3.88; for `CCOP(=O)(Sc1ccccc1)Sc1ccccc1`, 3.48; for `CCO/N=C(\OC(=O)c1ccccc1)c1c(OC)ccc(Cl)c1OC`, 3.73.
